Test results: patent US4767768A, “Nitro aliphatic compounds, process for preparation thereof and use thereof” (Fujisawa Pharmaceutical Co., Ltd., priority 1982, dated 1988)
≈ marks a conversion by molar mass, not a printed value. Where two headings read alike, the source gives them in different places.

Legend:
[1] = test system: rabbit platelet aggregation; test: Inhibition of rabbit platelet aggregation (turbidimetric, platelet rich plasma); format: cell-based, rabbit (male Japanese White); conditions: Oryctolagus cuniculus
Description: Inhibitory activity of the nitro aliphatic compounds of this invention against rabbit platelet aggregation was measured according to the method described below.
Blood was collected from the central ear arteries of male Japanese White rabbit (2.5 to 3.0 kg body weight). The blood was prevented from coagulation with 1 volume of 3.8% sodium citrate to 9 volumes of blood. Platelet rich plasma (PRP) was prepared by centrifugation of the blood at 1300 rpm for 10 min. at 10° C. The PRP was diluted with platelet poor plasma obtained by further centrifugation of the blood at 3000 rpm for 10 min. The platelet counts in the PRP used for aggregation studies were about 4.0×10^5 platelets/mm^3. Aggregometry was performed with platelet aggregating agents in a SIENCO dual sample aggregometer (DP-247E) at 37° C., using 0.3 ml combined volume of PRP and reagents in a cylindrical glass cuvette under constant stirring with a magnetic stirring bar. Platelet aggregation was measured turbidimetrically by recording changes in the light transmission of PRP during aggregation. Activities of inhibitors were expressed as IC50 values i.e. concentrations required to inhibit the platelet aggregation responses by 50%. Collagen was used in amounts (2 to 20 μg/ml for PRP) sufficient to induce a response that was 80 to 90% of the maximum obtainable. Arachidonic acid was used at a final concentration of 5 μM. Similarly a final concentration of adenosine di-phosphate (ADP), usually 1 to 5 μM was choosen to induce approximately 75% of the maximum aggregation. Thrombin was used at a final concentration of 0.3 U/ml.

blood pressure = test: Hypotensive activity in anesthetized rat; format: in vivo, rat (Sprague-Dowley); conditions: intravenous, urethane-anesthetized rat
Description: A 8 weeks-old Sprague-Dowley strain rat was anesthetized with urethane (0.7 g/kg, i.p). Blood pressure was recorded from femoral artery using a transducer coupled to a Biophysiograph 180 system (made by Sanei Sokuki Co., Ltd.). The femoral vein was cannulated to permit intravenous injection of the test compound. The test compound was dissolved in saline and injected in a volume of 0.2 ml.

[2] = Inducer: Thrombin (0.3 U/ml), Table 2, read-out: IC50, platelet aggregation

| Compound | IC50 [1, 2] [µg/mL] | also measured |
| --- | --- | --- |
| CCC(=CC(=NO)C(N)=O)C(c1ccc(OC)cc1)[N+](=O)[O-] (stereo not drawn) [Example 14, 4-Ethyl-2-hydroxyimino-5-(4-methoxyphenyl)-5-nitro-3-pentenamide] | 0.3 (≈ 0.976 µM) | – |
| CCC(=CC(CO)=NO)C(C)[N+](=O)[O-] (stereo not drawn) [Example 22, 4-ethyl-2-hydroxyimino-5-nitro-3-hexen-1-ol] | 0.75 (≈ 3.71 µM) | – |
| CCCCNC(=O)C(C=C(CC)C(C)[N+](=O)[O-])=NO (stereo not drawn) [Example 2, N-n-butyl-4-ethyl-2-hydroxyimino-5-nitro-3-hexenamide] | 0.15 (≈ 0.553 µM) | – |
| CCC(=CC(=NO)C(=O)NCC(=O)O)C(C)[N+](=O)[O-] (stereo not drawn) [Example 6, N-(4-Ethyl-2-hydroxyimino-5-nitro-3-hexenoyl)glycine] | 0.15 (≈ 0.549 µM) | – |
| CCC(=CC=NO)C(C)[N+](=O)[O-] (stereo not drawn) [Example 28, 3-ethyl-4-nitro-2-pentenaloxime] | 6 (≈ 34.8 µM) | – |
| CCOC(=O)C(C=C(CC)C(C)[N+](=O)[O-])=NO (stereo not drawn) [Example 19, Ethyl 4-ethyl-2-hydroxyimino-5-nitro-3-hexenoate] | 0.07 (≈ 0.287 µM) | – |
| CCC(=CC(=NO)C(=O)N1CCCCC1)C(C)[N+](=O)[O-] (stereo not drawn) [Example 7, N-(4-Ethyl-2-hydroxyimino-5-nitro-3-hexenoyl)piperidine] | 0.75 (≈ 2.65 µM) | – |
| CCC(=CC(=NO)C(=O)NCCCC(=O)O)C(C)[N+](=O)[O-] (stereo not drawn) [Example 15, N-[4-Ethyl-2-hydroxyimino-5-nitro-3-hexenoyl]-4-aminobutyric acid] | 0.75 (≈ 2.49 µM) | – |
| CCC(CC(=NO)C(=O)NC(C)(C)C)C(C)[N+](=O)[O-] (stereo not drawn) [Example 24, N-t-butyl-4-ethyl-2-hydroxyimino-5-nitrohexanamide] | 1.5 (≈ 5.49 µM) | – |
| CCC(=CC(C=NO)=NO)C(C)[N+](=O)[O-] (stereo not drawn) [Example 21, 4-ethyl-2-hydroxyimino-5-nitro-3-hexenaldehyde oxime] | 0.15 (≈ 0.697 µM) | – |
| CCC(CC(=NO)C(N)=O)C(C)[N+](=O)[O-] (stereo not drawn) [Example 25, 4-Ethyl-2-hydroxyimino-5-nitro-hexanamide] | 6 (≈ 27.6 µM) | – |
| CCC(=CC(=NO)C(=O)NC)C(C)[N+](=O)[O-] (stereo not drawn) [Example 3, N-Methyl-4-ethyl-2-hydroxyimino-5-nitro-3-hexenamide] | 0.3 (≈ 1.31 µM) | – |
| CC/C(=C\C(=NO)C(N)=O)C(C)[N+](=O)[O-] (stereo not drawn) [Example 1, (E)-4-ethyl-2-hydroxyimino-5-nitro-3-hexenamide] | – | IC50 ([1]; inducer: ADP (usually 1 to 5 μM), read-out: IC50 value, platelet aggregation): 0.15 µg/mL (≈ 0.697 µM); IC50 ([1]; inducer: Arachidonic acid (5 μM), read-out: IC50 value, platelet aggregation): 0.75 µg/mL (≈ 3.48 µM); IC50 ([1]; inducer: Collagen (2 to 20 μg/ml), read-out: IC50 value, platelet aggregation): 0.07 µg/mL (≈ 0.325 µM); IC50 ([1]; inducer: Thrombin (0.3 U/ml), Table 1, read-out: IC50 value, platelet aggregation): 0.15 µg/mL (≈ 0.697 µM); Hypotensive effect, Duration (blood pressure; 10 μg/kg): 1.5 min; Hypotensive effect, Maximal decrease (blood pressure; 10 μg/kg): 10 mm Hg; Hypotensive effect, Duration (blood pressure; 100 μg/kg): 4 min; Hypotensive effect, Maximal decrease (blood pressure; 100 μg/kg): 40 mm Hg |
| CCC(=CC(COC(C)=O)=NO)C(C)[N+](=O)[O-] (stereo not drawn) [Example 23, 1-Acetoxy-4-ethyl-2-hydroxyimino-5-nitro-3-hexene] | 0.15 (≈ 0.614 µM) | – |
| CCC(=CC(=NO)C(=O)N1CCN(C=O)CC1)C(C)[N+](=O)[O-] (stereo not drawn) [Example 4, 1-Formyl-4-(4-ethyl-2-hydroxyimino-5-nitro-3-hexenoyl)piperazine] | 0.3 (≈ 0.961 µM) | – |
| CCC(=CC(C=O)=NO)C(C)[N+](=O)[O-] (stereo not drawn) [Example 18, 4-Ethyl-2-hydroxyimino-5-nitro-3-hexenal] | 3 (≈ 15 µM) | – |
| CCC(=CC(=NO)C(=O)NCc1ccccc1)C(C)[N+](=O)[O-] (stereo not drawn) [Example 11, N-Benzyl-4-ethyl-2-hydroxyimino-5-nitro-3-hexenamide] | 0.15 (≈ 0.491 µM) | – |
| CCC(=CC(=NO)C(=O)N[C@H](C(=O)O)[C@@H](C)O)C(C)[N+](=O)[O-] (stereo partly drawn) [Example 10, N-(4-Ethyl-2-hydroxyimino-5-nitro-3-hexenoyl)-L-threonine] | 0.3 (≈ 0.945 µM) | – |
| CCC(=CC(=NO)C(=O)NCC(=O)OC)C(C)[N+](=O)[O-] (stereo not drawn) [Example 20, Methyl 2-[4-ethyl-2-hydroxyimino-5-nitro-3-hexenoylamino]acetate] | 0.15 (≈ 0.522 µM) | – |
| CCC(=CC(C#N)=NO)C(C)[N+](=O)[O-] (stereo not drawn) [Example 17, 4-Ethyl-2-hydroxyimino-5-nitro-3-hexenenitrile] | 1.5 (≈ 7.61 µM) | – |
